Results as given in patent US4345938A, “Herbicidal 2-haloacetanilides” (Monsanto Company, priority 1980, dated 1982).
Like-named read-outs stand apart in the source and are kept apart here.

Tests used:
Assay type in all cases: in vivo
[1] = test system: Echinochloa crus-galli; experiment: Field transplant rice test, applied 0 DAT, EC; conditions: 0 h, read-out: Percent Inhibition, EC; for inhibition at 375 g/ha: 0.375 Kg/Ha; for inhibition at 750 g/ha: 0.75 Kg/Ha; for inhibition at 1500 g/ha: 1.5 Kg/Ha; for inhibition at 3000 g/ha: 3.0 Kg/Ha
Experimental: (§1) The test data in Table III for all compounds was obtained under identical test conditions. The weeds used in the tests herein have the following abbreviations in the tables: Echinochloa crus-galli (EC), Monochloria vaginalis (MV), Cyperus Serotinus (CS), Eleocharis Kuroguwai (EK) and Sagittaria trifolia (ST).
(§2) In further comparative tests, a preferred compound of this invention (Example 1) was tested in the field with prior art Compounds A-D. These tests were conducted under conditions reflecting herbicide application times generally favorable to all herbicides in the test. The timing of application of herbicides to transplant rice is very important, whether, as in some instances, prior to transplanting the rice; in other instances, at the time of transplanting or else after transplanting. Application times are conventionally referred to as "days before transplant" (DBT) or "days after transplant" ("DAT"). The field test data in Table IV was obtained from a test in which the herbicides were applied at the time of transplant, i.e., "0 DAT", with observations being made weekly up to six weeks after transplant ("WAT") beginning at two weeks after transplant; for illustrative and representative purposes, only the early, middle and late period observations, i.e., 2 WAT, 4 WAT and 6 WAT, are shown in Table IV. The data in Table IV is for rates of application common to all herbicides in the test, i.e., from 3.0 kg/ha (2.67 lb/A) down to 0.375 kg/ha (0.34 lb/A). All herbicides were applied at their actual or expected use rates, i.e., as granules containing 2.5% by weight herbicide for the compound of Example 1, Compounds B, C and D and 5.0% by weight for Compound A.

[2] = test system: Sagittaria trifolia; experiment: Field transplant rice test, applied 0 DAT, ST; conditions: 0 h, read-out: Percent Inhibition, ST; for inhibition at 375 g/ha: 0.375 Kg/Ha; for inhibition at 750 g/ha: 0.75 Kg/Ha; for inhibition at 1500 g/ha: 1.5 Kg/Ha; for inhibition at 3000 g/ha: 3.0 Kg/Ha
Experimental: as §1, §2

[3] = test system: Cyperus serotinus; experiment: Field transplant rice test, applied 9 DAT, CS; conditions: for inhibition at 375 g/ha / inhibition at 750 g/ha / inhibition at 1500 g/ha / inhibition at 3000 g/ha: Cyperus serotinus, 216 h, read-out: Percent Inhibition, CS; for inhibition at 375 g/ha: 0.375 Kg/Ha; for inhibition at 750 g/ha: 0.75 Kg/Ha; for inhibition at 1500 g/ha: 1.5 Kg/Ha; for inhibition at 3000 g/ha: 3.0 Kg/Ha; for selectivity factor (GR15/GR85), CS in transplant rice: between 3 WAT and 7 WAT
From the text: In the discussion of data below, occasional reference is made to herbicide application rates symbolized as "GR15 " and "GR85 "; these rates are given in kilograms per hectare (kg/ha) which are convertible into pounds per acre (lbs/A) by dividing the kg/ha rate by 1.12.
A further guide to the effectiveness of a chemical as a selective herbicide is the "selectivity factor" ("SF") for a herbicide in given crops and weeds. The selectivity factor is a measure of the relative degree of crop safety and weed injury and is expressed in terms of the GR15 /GR85 ratio, i.e., the GR15 rate for the crop divided by the GR85 rate for the weed, both rates in kg/ha (lb/A.)
as §1, §2
In Table V are presented field data showing the relative performance of the compound of Example 1 and Compounds A-D applied 9 DAT, with observations being made weekly from 3 WAT to 7 WAT; again, for illustrative and representative purposes, only the early, middle and late period observations are reported in Table V, the herbicide rates and concentrations of active ingredients the same as is shown in Table IV.

SMILES | inhibition at 375 g/ha ([1]; 2 WAT) [%] | inhibition at 375 g/ha ([1]; 4 WAT) [%] | inhibition at 375 g/ha ([1]; 6 WAT) [%] | inhibition at 750 g/ha ([1]; 2 WAT) [%] | inhibition at 750 g/ha ([1]; 4 WAT) [%] | inhibition at 750 g/ha ([1]; 6 WAT) [%] | inhibition at 1500 g/ha ([1]; 2 WAT) [%] | inhibition at 1500 g/ha ([1]; 4 WAT) [%] | inhibition at 1500 g/ha ([1]; 6 WAT) [%] | inhibition at 3000 g/ha ([1]; 2 WAT) [%] | inhibition at 3000 g/ha ([1]; 4 WAT) [%] | inhibition at 3000 g/ha ([1]; 6 WAT) [%] | inhibition at 375 g/ha ([2]; 2 WAT) [%] | inhibition at 375 g/ha ([2]; 4 WAT) [%] | inhibition at 375 g/ha ([2]; 6 WAT) [%] | inhibition at 750 g/ha ([2]; 2 WAT) [%] | inhibition at 750 g/ha ([2]; 4 WAT) [%] | inhibition at 750 g/ha ([2]; 6 WAT) [%] | inhibition at 1500 g/ha ([2]; 2 WAT) [%] | inhibition at 1500 g/ha ([2]; 4 WAT) [%] | other results
CCCCOCCN(C(=O)CCl)c1c(CC)cccc1CC [Compound B, 2',6'-diethyl-N-(n-butoxyethyl)-2-chloroacetanilide] | 55 | 68 | 37 | 87 | 93 | 88 | 90 | 98 | 98 | 97 | 100 | 100 | 27 | 10 | 5 | 27 | 15 | 7 | 62 | 12 | inhibition at 1500 g/ha ([2]; 6 WAT): 7%; inhibition at 3000 g/ha ([2]; 2 WAT): 32%; inhibition at 3000 g/ha ([2]; 4 WAT): 30%; inhibition at 3000 g/ha ([2]; 6 WAT): 13%; inhibition at 375 g/ha ([3]; 3 WAT): 93%; inhibition at 375 g/ha ([3]; 5 WAT): 100%; inhibition at 375 g/ha ([3]; 7 WAT): 77%; inhibition at 750 g/ha ([3]; 3 WAT): 78%; inhibition at 750 g/ha ([3]; 5 WAT): 67%; inhibition at 750 g/ha ([3]; 7 WAT): 67%; inhibition at 1500 g/ha ([3]; 3 WAT): 87%; inhibition at 1500 g/ha ([3]; 5 WAT): 85%; inhibition at 1500 g/ha ([3]; 7 WAT): 67%; inhibition at 3000 g/ha ([3]; 3 WAT): 75%; inhibition at 3000 g/ha ([3]; 5 WAT): 72%; inhibition at 3000 g/ha ([3]; 7 WAT): 65%; selectivity factor (GR15/GR85), CS in transplant rice [3]: 1
CCCCOCN(C(=O)CCl)c1c(C)cccc1C(C)(C)C [Compound C, 2'-methyl-6'-tert-butyl-N-(n-butoxymethyl)-2-chloroacetanilide] | 98 | 100 | 98 | 100 | 100 | 100 | 100 | 100 | 100 | 98 | 100 | 100 | 30 | 5 | 0 | 33 | 18 | 8 | 38 | 30 | inhibition at 1500 g/ha ([2]; 6 WAT): 17%; inhibition at 3000 g/ha ([2]; 2 WAT): 53%; inhibition at 3000 g/ha ([2]; 4 WAT): 35%; inhibition at 3000 g/ha ([2]; 6 WAT): 18%; inhibition at 375 g/ha ([3]; 3 WAT): 58%; inhibition at 375 g/ha ([3]; 5 WAT): 60%; inhibition at 375 g/ha ([3]; 7 WAT): 43%; inhibition at 750 g/ha ([3]; 3 WAT): 93%; inhibition at 750 g/ha ([3]; 5 WAT): 93%; inhibition at 750 g/ha ([3]; 7 WAT): 82%; inhibition at 1500 g/ha ([3]; 3 WAT): 62%; inhibition at 1500 g/ha ([3]; 5 WAT): 87%; inhibition at 1500 g/ha ([3]; 7 WAT): 83%; inhibition at 3000 g/ha ([3]; 3 WAT): 95%; inhibition at 3000 g/ha ([3]; 5 WAT): 100%; inhibition at 3000 g/ha ([3]; 7 WAT): 100%; selectivity factor (GR15/GR85), CS in transplant rice [3]: 4
CCCOCCN(C(=O)CCl)c1c(CC)cccc1CC [Compound D, 2',6'-diethyl-N-(n-propoxyethyl)-2-chloroacetanilide] | 73 | 88 | 83 | 90 | 100 | 100 | 97 | 98 | 93 | 99 | 100 | 100 | 20 | 2 | 0 | 28 | 10 | 7 | 23 | 27 | inhibition at 1500 g/ha ([2]; 6 WAT): 22%; inhibition at 3000 g/ha ([2]; 2 WAT): 22%; inhibition at 3000 g/ha ([2]; 4 WAT): 28%; inhibition at 3000 g/ha ([2]; 6 WAT): 18%; inhibition at 375 g/ha ([3]; 3 WAT): 92%; inhibition at 375 g/ha ([3]; 5 WAT): 87%; inhibition at 375 g/ha ([3]; 7 WAT): 67%; inhibition at 750 g/ha ([3]; 3 WAT): 77%; inhibition at 750 g/ha ([3]; 5 WAT): 67%; inhibition at 750 g/ha ([3]; 7 WAT): 33%; inhibition at 1500 g/ha ([3]; 3 WAT): 77%; inhibition at 1500 g/ha ([3]; 5 WAT): 77%; inhibition at 1500 g/ha ([3]; 7 WAT): 100%; inhibition at 3000 g/ha ([3]; 3 WAT): 90%; inhibition at 3000 g/ha ([3]; 5 WAT): 100%; inhibition at 3000 g/ha ([3]; 7 WAT): 100%; selectivity factor (GR15/GR85), CS in transplant rice [3]: 1
